Measured values published in patent US20120065123A1, “Synthetic Antibodies” (priority 2009, published 2012).
Bridges are numbered along the chain shown (N, C = ends). Roman numbers before positions name the chains, in order. Where no end group is shown, it is not given here. The star is where a group is joined. StBu = CC(C)(C)S*

What was measured:
[1] = molecular target: T1, Transferrin (Homo sapiens, UniProt P02787); assay: SPR solution phase KD of candidate affinity elements, transferrin immobilized (Biacore T100); format: binding; conditions: steady-state response, 25° C., PBST
T1 sequence (P02787 20-698): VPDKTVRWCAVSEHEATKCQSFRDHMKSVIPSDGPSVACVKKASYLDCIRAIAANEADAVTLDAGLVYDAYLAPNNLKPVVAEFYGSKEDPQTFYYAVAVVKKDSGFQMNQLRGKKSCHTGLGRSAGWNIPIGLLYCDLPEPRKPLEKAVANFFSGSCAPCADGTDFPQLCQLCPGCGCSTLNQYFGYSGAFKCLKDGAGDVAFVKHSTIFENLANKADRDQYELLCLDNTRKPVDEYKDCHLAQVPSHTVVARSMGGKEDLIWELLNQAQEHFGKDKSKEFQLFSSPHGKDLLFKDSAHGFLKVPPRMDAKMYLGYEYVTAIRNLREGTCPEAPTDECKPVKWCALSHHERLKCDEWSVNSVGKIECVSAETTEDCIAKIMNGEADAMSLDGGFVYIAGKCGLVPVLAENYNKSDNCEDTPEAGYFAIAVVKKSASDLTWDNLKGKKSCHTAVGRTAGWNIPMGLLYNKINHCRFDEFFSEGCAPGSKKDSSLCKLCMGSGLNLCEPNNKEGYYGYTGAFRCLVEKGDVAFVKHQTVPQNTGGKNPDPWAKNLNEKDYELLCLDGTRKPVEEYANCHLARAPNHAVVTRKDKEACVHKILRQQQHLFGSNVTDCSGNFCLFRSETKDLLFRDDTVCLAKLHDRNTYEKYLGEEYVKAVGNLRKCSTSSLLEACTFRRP
Protocol: Transferrin 25 μg/ml in immobilization buffer selected for correct pH was then applied 302 at a flow rate of 5 to 10 μl/min for a contact time of about 5 to 10 minutes, allowing the amine functionality on the transferrin 308 to displace the activated NHS ester and bond to the surface via an amide bond. Finally, ethylene diamine (1M ethylene diamine-HCl at pH 8.5) was applied 304 at a flow rate of 5 to 10 μl/min for a contact time of about 6 to 7 minutes to deactivate any remaining reactive groups on the dextran chip surface. Flow rates and contact times are adjusted as necessary to provide the surface concentration of target desired for the intended application, and may vary by target. In general, for evaluating whether binding occurs, it is preferable to immobilize a relatively large quantity of target, and higher flow rates and/or longer contact times may be used. For determining kinetics, it is preferable to limit the amount of target immobilized so as to minimize rebinding and avidity effects, and lower flow rates and/or contact times may be used.
Candidate affinity elements for the transferrin synbody TRF19, TRF21, TRF23, TRF24, TRF25, and TRF26 were individually evaluated for solution phase KD with respect to transferrin by SPR analysis. Because the off rates for these polypeptides were very high, KD values were estimated by measuring steady-state response for at least five concentrations in a two-fold dilution series, each concentration tested in duplicate. For each experiment, response data were processed using a reference surface to correct for bulk refractive index changes and any non-specific binding. Data were also double referenced using responses from blank running buffer injections. Each experiment was conducted at 25° C. using PBST (0.01M Phosphate Buffered Saline, 0.138M NaCl, 0.0027M KCl, 0.05% surfactant Tween20, pH 7.4) as the running buffer on a Biacore T100 instrument. Analytes were injected for 60 s at a flow rate of 30 μl/min. The antigen surfaces were regenerated with 30 s consecutive pulses of NaOH/NaCl (50 mM NaOH in 1M NaCl) and Glycine (10 mM glycine-HCl, pH 2.5).

[2] = molecular target: T1, Transferrin; assay: SPR analysis of peptide pairs for binding to distinct sites on target; conditions: peptides applied in 1:1 mixtures in pairs
Description: The transferrin target was immobilized on a Biacore T100 SPR chip, and candidate polypeptides were applied in 1:1 mixtures in pairs and response data obtained, in accordance with the methods described in Example 4 above. As illustrated in FIGS. 12A-D, upon flowing candidate polypeptides over the immobilized target, ideally one polypeptide applied alone would bind to a first binding site on the target and produce a first characteristic SPR response level (FIG. 12A), the other polypeptide would bind to a second, distinct binding site on the target, producing a second characteristic response level (FIG. 12B), and a mixture of the two polypeptides together (at the same concentrations as before) would produce a response level approximating the sum of the response levels produced by each polypeptide alone, as the polypeptides bind to distinct binding sites (FIG. 12C).

[3] = molecular target: T1, Transferrin; assay: Peptide microarray ranking, labeled transferrin with E. coli lysate competitor; format: binding
Protocol: Several polypeptides were identified as candidate affinity elements for synbodies against an arbitrarily chosen protein target, transferrin, by incubating transferrin on the polypeptide microarray in the presence of E. coli lysate competitor. Transferrin was randomly direct-labeled at free amines with Alexa™ 555, and E. coli lysate was randomly direct-labeled at free amines with Alexa™ 647. Three replicate arrays were passivized by applying a mixture of BSA and mercaptohexanol for one hour. The arrays were blocked with unlabelled E. coli lysate for one hour, then washed three times with TBST (0.05% Tween) followed by three times with water. A mixture of labeled transferrin and labeled E. coli lysate was applied to the three replicate arrays and incubated for three hours. The arrays were again washed three times with TBST (0.05% Tween) followed by three times with water, and scanned at 555 nm and 647 nm using an array reader. Polypeptides were ranked as candidates for inclusion as affinity elements of synbodies by computing a score for each polypeptide equal to the mean raw 555 nm intensity over the six replicate features, squared, divided by the mean raw 647 nm intensity over the six replicate features. This simple scoring function tends to favor candidate polypeptides that bind at least moderate affinity, since otherwise the 555 nm intensity would be relatively lower, and that are relatively specific, since otherwise the 647 nm intensity would be relatively higher and contribute to a relatively lower score. Many variations of this ranking and identification process can be used, such as, by way of non-limiting examples, two-color comparisons against other competitors; comparisons with data taken in separate experiments with respect to other targets; and use of scoring functions taking into account other factors, employing other functional relationships, and/or involving statistical analysis and/or preprocessing of data and/or correcting for background fluorescence and/or other factors affecting the accuracy of the measured intensities. Ten polypeptides (Table 1) were identified for further evaluation for use as affinity elements in synbodies by choosing the polypeptides having the highest score (one polypeptide was rejected as difficult to synthesize, so the polypeptides chosen were ten of those having the eleven highest scores).
After preparation of the array in accordance with the methods previously described in Example 2, the array was washed one time for five minutes in 7.33% acetonitrile, 37% isopropanol, 0.55% trifluoroacetic acid, and 55% water. Alexa 555 labeled target protein transferrin was applied, together with Alexa 647 labeled E. coli lysate competitor, to the prewashed array and to an identical array without organic prewash. […] 5,010 on the array without organic prewash, but ranked no. 9601 on the prewashed array. Conversely, peptide TRF-21, shown by SPR analysis to be a relatively strong binder of transferrin, rose in rank from 84 on the non-prewashed array to rank no. 5 on the prewashed array.

[4] = test system: 8,000 human proteins (GST fusion); assay: Protein microarray screen (Invitrogen Protoarray Human Protein Microarray, 8,000 features); format: binding; conditions: fluorescence intensity
Protocol: Two biotinylated anti-TRF synbodies (SYN23-26 and SYN 21-22) were applied to a protein microarray having 8,000 features (Invitrogen Protoarray Human Protein Microarray v. 4.0 for immune response biomarker profiling), each feature comprising a distinct human protein (GST fusion) adsorbed to a nitrocellulose coated slide. Application of the synbodies to the microarray was performed in accordance with manufacturer instructions: (see ProtoArray Human Protein Microarray, Invitrogen, Catalog no. PAH052401, Version B, 15 Dec. 2006, 25-0970, Users Manual.) After blocking the array with 1% BSA/PBS/0.1% Tween for 1 hour at 4C with gentle shaking, 120 μl of probing buffer (1×PBS, 5 mM mgCl2, 0.5 mM DTT, 0.05% Triton X-100, 5% glycerol, 1% BSA) with synbody was applied to the array. The prescribed cover slip was placed over the array and adjusted to remove air bubbles. The array was incubated in a 50 ml conical tube, printed side up, for 1.5 hours at 4C without shaking. The array was then removed from the conical tube inserted diagonally into the array chamber, kept on ice. 8 ml probing buffer was added to the chamber wall. The cover slip was removed and the array was incubated in probing buffer for 1 minute on ice. […] The array was dried in the dark for 60 minutes at room temperature, after which it was scanned using a fluorescent microarray scanner and data was taken and analyzed.

[5] = molecular target: Tumor Necrosis Factor-alpha (TNF-α) (Homo sapiens, UniProt P01375); assay: Chromatographic affinity screening on protein-coupled pipette tips with MALDI readout; format: binding; conditions: 500 nM each synbody in E. Coli Lysate
Sequence of Tumor Necrosis Factor-alpha (TNF-α) (P01375 77-233 limits assumed, species assumed): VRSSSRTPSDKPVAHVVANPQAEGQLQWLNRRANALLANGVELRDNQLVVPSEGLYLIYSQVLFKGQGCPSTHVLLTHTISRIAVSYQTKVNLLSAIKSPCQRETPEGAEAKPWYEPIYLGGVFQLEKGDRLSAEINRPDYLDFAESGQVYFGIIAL
Protocol: The target proteins, Transferrin (TRF) and Tumor Necrosis Factor-alpha (TNF-α), were each covalently attached to pipette tips (one protein per pipette tip) containing carboxymethyl dextran matrix (Intrinsic Bioprobes, Tempe, Ariz.) using standard amine coupling chemistry. The unmodified tips were first washed with 0.5 M HCl followed by acetone. Each tip was activated using a 50 mg/mL solution of […] (CDI) in N-methyl-pyrolidone (NMP). Each tip was washed with NMP to remove excess CDI. Each protein was prepared as a 50 μg/mL solution in 100 mM sodium acetate pH 5.0 and cycled through a CDI activated tip for 30 minutes. Un-reacted CDI in the tip was then quenched with the addition of 1.5 M ethanolamine pH 8.5 and then washed extensively with HBS-N buffer. The protein-coupled tips were then stored in HBS-N buffer at 4° C. Negative control tips were prepared in the same manner except that no protein was added to the sodium acetate solution during the protein coupling step.
A library of 14 candidate synbodies (Table 9) was prepared by making 12 μM stock solutions in 1× phosphate buffered saline (PBS) of each HPLC purified synbody and […] of each stock solution was added to 600 μL of E. Coli Lysate that had been treated with a protease inhibitor. Thus the final concentration of each synbody was 500 nM.
A negative control pipette tip (blank tip), a TRF tip, and a TNF-α tip, were washed with 0.1% sodium dodecyl sulfate (SDS) to remove any non-covalently bound protein and then washed with HBS buffer. The tips were then incubated for 15 minutes in 150 μL of the synbody library. Each tip was then washed 5 times in 150 μL of HBS-N. This step was then repeated and each tip was washed 5 times in 150 μL of 0.25 M NaCl. Each tip was then washed 5 times in 150 μL of Milli-Q water and this step was repeated. […]
Each elution sample was spotted onto a MALDI plate and analyzed in reflectron mode on a Bruker Daltonics UltraFlex III TOF/TOF MALDI Mass Spectrometer.

[6] = molecular target: TNF-α (Homo sapiens, UniProt P01375); assay: SPR verification of candidate TNF-α binding synbodies (Biacore T-100); conditions: 1.25 μM to 9.8 nM
Sequence of TNF-α (P01375 77-233 limits assumed, species assumed): as above
Protocol: Candidate TNF-α binding synbodies were screened by surface plasmon resonance (SPR) on a Biacore T-100 SPR instrument to verify binding for TNF-α. A CM5 chip was activated using standard amine coupling chemistry and TNF-α was immobilized. Each synbody was prepared in HBS-N buffer with excess carboxymethyl dextran added to the running buffer to minimize non-specific binding to the chip surface. A concentration series of each synbody was prepared where the concentrations ranged from 1.25 μM to 9.8 nM.

[7] = molecular target: T2, pooled human transferrin (Homo sapiens, UniProt P02787); assay: High throughput SPR screening of peptides (Biacore A-100); format: binding; conditions: purified peptide, several concentrations; read-out: KD with respect to transferrin
T2 construct: purchased Sigma
T2 sequence (P02787 20-698): as the sequence (P02787 20-698) above
Protocol: Peptide affinity element candidates were screened against target proteins immobilized on the SPR surface. Each target protein was modified with biotin using the following procedure: NHS-LC-LC-Biotin (Pierce Biotechnology) was re-suspended in DMSO at a concentration of 7.13 mM. Each protein was prepared in 100 mM PBS pH 7.5 at a concentration of ˜50 μM. NHS-LC-LC-Biotin was then added to the protein solution at a 3:1 or 5:1 molar ratio. The reaction was performed for 2 hours at room temperature and the protein sample was analyzed by MALDI mass spectrometry to determine the number of biotin molecules added per molecule of protein. Excess NHS-LC-LC-Biotin was removed using a 3 kDa spin filter. The target proteins for which data is shown in this example were pooled human transferrin (Sigma) and purified bovine ubiquitin.
A Biacore A-100 Surface Plasmon Resonance (SPR) system was used to measure the binding response of each peptide to several different target proteins immobilized on a gold surface. […] Each biotinylated protein was injected over a single spot and the amount of protein captured was measured. […]
Data analysis was performed using the A-100 Evaluation software package that analyzes and filters the data using a variety of measures of quality control for each sensorgram. […] In this manner a relative measure of the specificity of binding for each peptide was determined. […]

## FRGWAHIFFGPHVIYRGGSC [TRF23]
[1]
  Kd: ~50 µM
[2]
  binding to distinct sites on transferrin: bind distinct sites on transferrin
[3]; array with organic prewash
  Rank -- prewash: 2091
[3]; array without organic prewash
  Rank - non-prewash: 2722

## I: AHKVVPQRQIRHAYNRYGSGKC / II: FRGWAHIFFGPHVIYRGGSG (amide I:21-II:C) [SYN23-26]
[4]
  highest affinity target from a library of 8,000: PCCA

## TNF1-TNF10-KC-stBu: lysine-linked synbody (peptide 1 FRGWAHIFFGPHVIYRGGSGKC(StBu); peptide 2 MKSIIPMSVAQHQGPIKGSG; not fully specified)
[5]
  MALDI peak in TNF-α tip elution (retention by target): showed a peak
[6]
  binding to TNF-α (sensorgrams): relatively strong binding kinetics

## ARDLLIQKNSGQDVDHRGSC [TRF101]
[7]
  Kd: 78.9 ± 27 µM

## TNF1-TNF4-KC-stBu: lysine-linked synbody (peptide 1 FMNYPIKVPILVVPIGRGSGKC(StBu); peptide 2 MKSIIPMSVAQHQGPIKGSG; not fully specified)
[5]
  MALDI peak in TNF-α tip elution (retention by target): no peak was observed
[6]
  binding to TNF-α (sensorgrams): no binding
